Measured values: publication PMC6325200, “Effects of Microplate Type and Broth Additives on Microdilution MIC Susceptibility Assays” (Antimicrobial Agents and Chemotherapy, 2018)
≈ marks a conversion by molar mass, not a printed value. Where a SMILES comes first, the peptide text is derived from it. Bridges are numbered along the chain shown (N, C = ends). [ ]: non-standard residue; d: D form. The star is where a group is joined. X1 = CC[C@H](C)CCCCC(=O)*; Dab = NCC[C@H](N)C(=O)O

Key:
[1] = test system: E. coli; details: literature value; cited from earlier work
[2] = test system: over 200 strains; details: 0.002% polysorbate added; cited from earlier work
From the text: Members of the lipopeptide polymyxin class of antibiotics (polymyxin B [compound 7a] and polymyxin E [or colistin, compound 7b]) are important last-line therapeutic agents against many multidrug-resistant Gram-negative bacteria ([27][–][31]). They consist of an N-terminal fatty acid side chain that is attached to a polycationic deca-peptide backbone (Fig. 1) with physicochemical properties similar to those of the lipoglycopeptides. These structural features confer amphipathicity, which is a key feature of many other cationic antimicrobial peptides (CAMPs) ([32][–][34]). As mentioned earlier, p ...

[3] = test system: A. baumannii ATCC 19606; test: microbe, parasite or virus in culture; details: n = 2
Procedure: (§1) A positive control of a row of just the bacteria and a negative control of only the medium were included for every plate tested.
(§2) The compounds along with standard antibiotics were serially diluted 2-fold across the 96-well plates. […] A sample of each culture was then diluted 40-fold in fresh MH broth (in presence and absence of Tween) and incubated at 37°C for 2 to 3 h.

[4] = test system: P. aeruginosa ATCC 10145; test: microbe, parasite or virus in culture; details: n = 2
Procedure: as §1, §2

[5] = test system: K. pneumoniae ATCC 13883; test: microbe, parasite or virus in culture; details: n = 2
Procedure: as §1, §2

[6] = literature values, reference given; cited from earlier work
From the text: Other assay additives can affect MIC values. […] Plasma protein binding has been implicated as a major factor limiting the active free concentration of many clinically important antibiotics ([37][–][42]).

[7] = test system: E. coli ATCC 25922; test: microbe, parasite or virus in culture
Procedure: as §1, §2
For experiments in the presence of surfactant, 2% beractant (25 mg/ml) was added to the mid-log-phase cultures and mixed gently and added to all the 96-well plates. For experiments in the presence of serum, a mixture of 50% of human serum along with 50% MHB was prepared and used throughout the experiment.

For `CC[C@H](C)CCCCC(=O)N[C@@H](CCN)C(=O)N[C@H](C(=O)N[C@@H](CCN)C(=O)N[C@H]1CCNC(=O)[C@H]([C@@H](C)O)NC(=O)[C@H](CCN)NC(=O)[C@H](CCN)NC(=O)[C@H](CC(C)C)NC(=O)[C@@H](Cc2ccccc2)NC(=O)[C@H](CCN)NC1=O)[C@@H](C)O` [Polymyxin B, polymyxin B] (X1-[Dab]T[Dab][Dab][Dab][dF]L[Dab][Dab]T; lactam 4-C (inferred); N-terminus assumed), the “MIC (literature)” value [1] is given as 0.25–1 ([73]) µg/ml, the “more potent MICs with surfactant present” value [2] is given as 4- to 8 fold and the MIC ([3]; Corning NBS, MHB +T80) is given as at most 0.03 µg/mL. It also gave an MIC ([3]; Corning NBS, MHB -T80) of at most 0.03 µg/mL, an MIC ([3]; Corning PS, MHB +T80) of at most 0.03 µg/mL and an MIC ([3]; Corning PS, MHB -T80) of 0.06 to 0.125 µg/mL. It also gave an MIC ([3]; Corning TC, MHB +T80) of 2 to 4 µg/mL, an MIC ([3]; Corning TC, MHB -T80) of 0.5 to 1 µg/mL and an MIC ([4]; Corning NBS, MHB +T80) of 0.03 to 0.125 µg/mL. For the same compound, the MIC ([4]; Corning NBS, MHB -T80) was 0.03 to 0.06 µg/mL, the MIC ([4]; Corning PS, MHB +T80) was 0.5 to 1 µg/mL and the MIC ([4]; Corning PS, MHB -T80) was 0.25 to 1 µg/mL. For the same compound, the MIC ([4]; Corning TC, MHB +T80) was 2 to 4 µg/mL, the MIC ([4]; Corning TC, MHB -T80) was 1 to 4 µg/mL and the MIC ([5]; Corning NBS, MHB +T80) was at most 0.03 µg/mL. For the same compound, the MIC ([5]; Corning NBS, MHB -T80) was 0.03 to 0.125 µg/mL, the MIC ([5]; Corning PS, MHB +T80) was 0.03 to 0.06 µg/mL and the MIC ([5]; Corning PS, MHB -T80) was 0.06 to 0.25 µg/mL. The MIC ([5]; Corning TC, MHB +T80) was 1 µg/mL (≈ 0.831 µM), the MIC ([5]; Corning TC, MHB -T80) was 1 µg/mL (≈ 0.831 µM) and the protein binding [6] was 50 to 60%. It also gave an MIC ([7]; Corning NBS, MH + 2% LHB, 2% LS, n = 2) of at most 0.03 µg/mL, an MIC ([7]; Corning NBS, MH + 2% LHB, 50% HS, n = 2) of at most 0.03 µg/mL and an MIC ([7]; Corning NBS, MH + 2% LHB, no additive, n = 2) of at most 0.03 µg/mL. The MIC ([7]; Corning NBS, MH + T80, 2% LS, n = 2) was at most 0.03 µg/mL, the MIC ([7]; Corning NBS, MH + T80, 50% HS, n = 2) was 0.03 to 0.06 µg/mL and the MIC ([7]; Corning NBS, MH, 2% LS, n = 2) was at most 0.03 µg/mL. For the same compound, the MIC ([7]; Corning NBS, MH, 50% HS, n = 2) was at most 0.03 µg/mL, the MIC ([7]; Corning PS plate, MHB +0.002% T80, no further additive, n = 2) was 0.03 to 0.25 µg/mL and the MIC ([7]; Corning PS plate, MHB −T80, no additive, n = 2) was 0.06 µg/mL (≈ 0.0499 µM). For the same compound, the MIC ([7]; Corning PS, MH + 2% LHB, 2% LS, n = 2) was 0.06 µg/mL, the MIC ([7]; Corning PS, MH + 2% LHB, 50% HS, n = 2) was 0.03 to 0.06 µg/mL and the MIC ([7]; Corning PS, MH + 2% LHB, no additive, n = 2) was 2 to 8 µg/mL. For the same compound, the MIC ([7]; Corning PS, MH + T80, 2% LS, n = 2) was 0.06 to 0.125 µg/mL, the MIC ([7]; Corning PS, MH + T80, 50% HS, n = 2) was 0.03 to 0.06 µg/mL and the MIC ([7]; Corning PS, MH, 2% LS, n = 2) was 0.06 to 0.125 µg/mL. For the same compound, the MIC ([7]; Corning PS, MH, 50% HS, n = 2) was at most 0.03 µg/mL, the MIC ([7]; Corning TC plate, MHB +0.002% T80, no further additive, n = 2) was 2 µg/mL (≈ 1.66 µM) and the MIC ([7]; Corning TC plate, MHB −T80, no additive, n = 2) was 1 to 2 µg/mL. It also gave an MIC ([7]; Corning TC, MH + 2% LHB, 2% LS, n = 2) of 2 to 8 µg/mL, an MIC ([7]; Corning TC, MH + 2% LHB, 50% HS, n = 2) of 4 µg/mL and an MIC ([7]; Corning TC, MH + 2% LHB, no additive, n = 2) of 0.125 µg/mL. It also gave an MIC ([7]; Corning TC, MH + T80, 2% LS, n = 2) of 2 to 4 µg/mL, an MIC ([7]; Corning TC, MH + T80, 50% HS, n = 2) of 1 to 4 µg/mL and an MIC ([7]; Corning TC, MH, 2% LS, n = 2) of 4 µg/mL (≈ 3.32 µM). The MIC ([7]; Corning TC, MH, 50% HS, n = 2) was 0.25 to 0.5 µg/mL, the “MIC” value ([7]; NBS plates) was at most 0.03 µg/mL and the MIC ([7]; Nunc PS plate, MHB +0.002% T80, n = 2) was 0.03 to 0.06 µg/mL. It also gave an MIC ([7]; Nunc PS plate, MHB −T80, n = 2) of 0.125 to 0.25 µg/mL, an MIC ([7]; Nunc U TC plate, MHB +0.002% T80, n = 2) of 2 to 4 µg/mL and an MIC ([7]; Nunc U TC plate, MHB −T80, n = 2) of 1 to 4 µg/mL. It also gave an MIC ([7]; Nunc flat TC plate, MHB +0.002% T80, n = 2) of 2 µg/mL (≈ 1.66 µM), an MIC ([7]; Nunc flat TC plate, MHB −T80, n = 2) of 1 µg/mL (≈ 0.831 µM) and an MIC ([7]; Trek PS plate, MHB +0.002% T80, no further additive, n = 2) of 0.03 to 0.06 µg/mL. The MIC ([7]; Trek PS plate, MHB −T80, no additive, n = 2) was 0.06 to 0.125 µg/mL, the MIC ([7]; Trek PS, MH + 2% LHB, 2% LS, n = 2) was at most 0.03 µg/mL and the MIC ([7]; Trek PS, MH + 2% LHB, 50% HS, n = 2) was at most 0.03 µg/mL. It also gave an MIC ([7]; Trek PS, MH + 2% LHB, no additive, n = 2) of 0.03 to 0.25 µg/mL, an MIC ([7]; Trek PS, MH + T80, 2% LS, n = 2) of 0.03 to 0.06 µg/mL and an MIC ([7]; Trek PS, MH + T80, 50% HS, n = 2) of 0.03 to 0.125 µg/mL. The MIC ([7]; Trek PS, MH, 2% LS, n = 2) was 0.5 to 1 µg/mL and the MIC ([7]; Trek PS, MH, 50% HS, n = 2) was at most 0.03 µg/mL.
